Data as given in ChEMBL document CHEMBL1201862, “PubChem BioAssay data set” (2004).
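How tested: cells in 96-well plates exposed to compound for 48 hours at five concentrations. GI50 is the concentration that inhibits growth by half.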 Active and inactive are the calls of the source. Cut-off read from the data, not from the text of the source: active = GI50 up to about 1.1 µM and inactive = higher.

Legend:
Experiment in all cases: NCI anticancer screen, dose series, 48 h
HCC 2998 = test system: HCC 2998
RXF 393 = test system: RXF 393
HCT-15 = test system: HCT-15
HL-60 = test system: HL-60
M14 = test system: M14
Malme-3M = test system: Malme-3M
SK-MEL-2 = test system: SK-MEL-2
ACHN = test system: ACHN
SK-MEL-5 = test system: SK-MEL-5
OVCAR-4 = test system: OVCAR-4
OVCAR-5 = test system: OVCAR-5
MDA-MB-231 = test system: MDA-MB-231
LOX IMVI = test system: LOX IMVI
SF-539 = test system: SF-539
MCF7 = test system: MCF7
MOLT-4 = test system: MOLT-4
IGROV-1 = test system: IGROV-1
UO-31 = test system: UO-31
U-251 = test system: U-251
A498 = test system: A498

Structure (SMILES)	GI50 (HCC 2998)	GI50 (RXF 393)	GI50 (HCT-15)	GI50 (HL-60)	GI50 (M14)	GI50 (Malme-3M)	GI50 (SK-MEL-2)	GI50 (ACHN)	GI50 (SK-MEL-5)	GI50 (OVCAR-4)	GI50 (OVCAR-5)	GI50 (MDA-MB-231)	GI50 (LOX IMVI)	GI50 (SF-539)	GI50 (MCF7)	GI50 (MOLT-4)	GI50 (IGROV-1)	GI50 (UO-31)	GI50 (U-251)	GI50 (A498)
O=c1c2cc(I)ccc2nc(SCc2n[nH]c(=S)o2)n1Cc1ccccc1	18.8 µM (inactive)	< 0.01 µM (active)	17.3 µM	4.71 µM (inactive)	20.5 µM (inactive)	17.9 µM (inactive)	15.6 µM (inactive)	15.3 µM (inactive)	13.2 µM (inactive)	18.1 µM (inactive)	24.8 µM (inactive)	17.3 µM (inactive)	15.7 µM (inactive)	16.1 µM (inactive)	15.9 µM (inactive)	20.7 µM (inactive)	16.6 µM (inactive)	0.741 µM (active)	17.6 µM (inactive)	18.6 µM (inactive)
Cc1c2oc(=O)c(C#N)cc2c2ccccn12	> 100 µM (inactive)	> 100 µM (inactive)	89.9 µM	> 100 µM (inactive)	70.1 µM (inactive)	97.3 µM (inactive)	> 100 µM (inactive)	> 100 µM (inactive)	> 100 µM (inactive)	> 100 µM (inactive)	> 100 µM (inactive)	> 100 µM (inactive)	71.9 µM (inactive)	81.7 µM (inactive)	> 100 µM (inactive)	> 100 µM (inactive)	> 100 µM (inactive)	60.7 µM (inactive)	99.3 µM (inactive)	> 100 µM (inactive)
COC(=O)c1oc([N+](=O)[O-])c(Cl)c1Cl	20 µM (inactive)	12.7 µM (inactive)	7.57 µM	1.34 µM (inactive)	7.28 µM (inactive)	7.43 µM (inactive)	12.2 µM (inactive)	8.91 µM (inactive)	9.08 µM (inactive)	9.31 µM (inactive)	8.13 µM (inactive)	7.35 µM (inactive)	6.05 µM (inactive)	6.01 µM (inactive)	2.04 µM (inactive)	2.19 µM (inactive)	7.67 µM (inactive)	8.07 µM (inactive)	8.11 µM (inactive)	15.1 µM (inactive)
CCOC(=O)CCC(NC(=O)c1ccc(OCc2nc3cc(C(F)(F)F)ccc3nc2-c2ccccc2)cc1)C(=O)OCC (stereo unspecified)	> 10 µM (inactive)	85.7 µM (inactive)	68.2 µM	> 100 µM (inactive)	81.7 µM (inactive)	87.3 µM (inactive)	22 µM (inactive)	94.2 µM (inactive)	31.6 µM (inactive)	13.7 µM (inactive)	> 100 µM (inactive)	> 100 µM (inactive)	> 100 µM (inactive)	> 100 µM (inactive)	5.37 µM (inactive)	40 µM (inactive)	75.2 µM (inactive)	37.9 µM (inactive)	> 100 µM (inactive)	> 100 µM (inactive)
OCCOCn1cc(Cn2ncc3c(SCc4ccccc4)ncnc32)nn1	51.1 µM (inactive)	31.6 µM (inactive)	37.4 µM	13.7 µM (inactive)	27.3 µM (inactive)	76.2 µM (inactive)	37.2 µM (inactive)	99.3 µM (inactive)	30 µM (inactive)	59.3 µM (inactive)	79.3 µM (inactive)	88.1 µM (inactive)	61.7 µM (inactive)	39 µM (inactive)	43.6 µM (inactive)	14.4 µM (inactive)	53.2 µM (inactive)	61.8 µM (inactive)	44.1 µM (inactive)	34.4 µM (inactive)
O=C(/C=C/C=C/c1ccccc1)c1ccccc1	17.8 µM (inactive)	17.6 µM (inactive)	12.2 µM	3.6 µM (inactive)	18 µM (inactive)	10 µM (inactive)	20.8 µM (inactive)		16.3 µM (inactive)	17.7 µM (inactive)	14.7 µM (inactive)	21.5 µM (inactive)	15.8 µM (inactive)	17.3 µM (inactive)	16.3 µM (inactive)	14.6 µM (inactive)	16.9 µM (inactive)	18.3 µM (inactive)	14 µM (inactive)	15.1 µM (inactive)
OC1C#CCSCC#C/C=C\1 (stereo unspecified)	> 100 µM (inactive)	18 µM (inactive)	> 100 µM	23.6 µM (inactive)	> 100 µM (inactive)	47.1 µM (inactive)	> 100 µM (inactive)	> 100 µM (inactive)		> 100 µM (inactive)	> 100 µM (inactive)	> 100 µM (inactive)	45.2 µM (inactive)	> 100 µM (inactive)	53.3 µM (inactive)		> 100 µM (inactive)	> 100 µM (inactive)	> 100 µM (inactive)	76.6 µM (inactive)
COC(=O)C(=O)C(C(=O)OC)C(=O)C(=O)Nc1c(Cl)cc([N+](=O)[O-])cc1Cl (stereo unspecified)	> 100 µM (inactive)	81.3 µM (inactive)	92.9 µM	> 100 µM (inactive)	> 100 µM (inactive)	> 100 µM (inactive)	> 100 µM (inactive)	80.2 µM (inactive)	> 100 µM (inactive)	80.9 µM (inactive)	> 100 µM (inactive)	> 100 µM (inactive)	83 µM (inactive)	> 100 µM (inactive)	> 100 µM (inactive)		44.9 µM (inactive)	> 100 µM (inactive)	68.7 µM (inactive)	> 100 µM (inactive)
